Like-named read-outs stand apart in the source and are kept apart here.
Tests used:
isolated rabbit hearts [1] = assay: coronary vasodilator effect: coronary flow, isolated heart (Langendorff)
Outline: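 Langendorff-perfused isolated rabbit hearts in oxygenated Ringer at 38.2° C; anoxia imposed until contractile force fell by 80%, then reoxygenated with or without test compound. Coronary flow, isometric contraction and ECG recorded by polygraph.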

isolated rat atrium = assay: antiarrhythmic effect, isolated rat atrium method of M. Libonati and G. Segre; settings: Rattus norvegicus; for inhibition at 0.1 µg/mL / activation at 0.1 µg/mL: 1·10^-4 g/lt; for inhibition at 0.1 µg/mL / inhibition at 0.01 µg/mL / inhibition at 0.001 µg/mL: decrease; for activation at 0.1 µg/mL / activation at 0.01 µg/mL / activation at 0.001 µg/mL: increase; for inhibition at 0.01 µg/mL / activation at 0.01 µg/mL: 1·10^-5 g/lt; for inhibition at 0.001 µg/mL / activation at 0.001 µg/mL: 1·10^-6 g/lt
female rats = assay: antifatigue effect: rota-rod; assay type: in vivo, rat; settings: Rattus norvegicus, ip, 0.25 h, read-out: percentage of animals staying on the rota-rod more than 180 seconds; for responders at 300 mg/kg: 300 mg/kg i.p.; for responders at 400 mg/kg: 400 mg/kg i.p.; for responders at 600 mg/kg: 600 mg/kg i.p.
Outline: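 Female rats dosed intraperitoneally in saline, with controls given saline alone. Every 15 min after treatment animals were placed on a 6 cm rod rotating at 16 r.p.m. Value is the percentage of animals staying on the rod for more than 180 s, per session.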

in vivo = settings: mouse, in vivo, iv
Text: The tolerance of acetyl-d,l-carnitine and of the other aforementioned acyl derivatives of the formula (I), as well as their salts were investigated by comparing the LD50 obtained by administering the compounds intravenously in mice with the LD50 obtained under the same experimental conditions by intravenous injection of d,l-carnitine.

isolated rabbit hearts [2] = assay: cardiokinetic effect on isolated heart (Langendorff): contractile force after anoxia, positive inotropic effect; settings: 10 minutes from interruption of anoxic period
Outline: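 Rabbit hearts were perfused Langendorff-style with oxygenated Ringer at 38.2 °C. Anoxia was applied until contractile force dropped by 80%, then the hearts were reoxygenated with or without compound. Contractile force was expressed as a percentage 10 min after the anoxic period ended.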

[3] = read-out: Mean percent variation versus controls: excitability (-%)
[4] = read-out: Mean percent variation versus controls: frequency max (-%)
[5] = read-out: Mean percent variation versus controls: refractory period (+%)
[6] = read-out: Mean percent variation versus controls: rheobase (+%)
[7] = session 6 (every 15 minutes), * p < 0.05

For `CCCCCCCCCCCCCCCCCC(=O)OC(CC(=O)[O-])C[N+](C)(C)C` (racemic) [stearoyl-d,l-carnitine], the “Coronary flow, Mean ± S.E.” value (isolated rabbit hearts [1]; 1·10^-5 g/lt) was 81.05 ± 6.27%, the “Coronary flow, Mean ± S.E.” value (isolated rabbit hearts [1]; 1·10^-6 g/lt) was 80.21 ± 8.78% and the “Coronary flow, Mean ± S.E.” value (isolated rabbit hearts [1]; 5·10^-6 g/lt) was 77.30 ± 11.8%. For the same compound, the inhibition at 0.1 µg/mL (isolated rat atrium; [3]) was 12.3%, the inhibition at 0.1 µg/mL (isolated rat atrium; [4]) was 3.5% and the activation at 0.1 µg/mL (isolated rat atrium; [5]) was 24.6%. The activation at 0.1 µg/mL (isolated rat atrium; [6]) was 2.08%, the inhibition at 0.01 µg/mL (isolated rat atrium; [3]) was 0% and the inhibition at 0.01 µg/mL (isolated rat atrium; [4]) was 1.92%. For the same compound, the activation at 0.01 µg/mL (isolated rat atrium; [5]) was 16.2%, the activation at 0.01 µg/mL (isolated rat atrium; [6]) was 3.84% and the inhibition at 0.001 µg/mL (isolated rat atrium; [3]) was 0%. It also gave an inhibition at 0.001 µg/mL (isolated rat atrium; [4]) of 0%, an activation at 0.001 µg/mL (isolated rat atrium; [5]) of 15.6% and an activation at 0.001 µg/mL (isolated rat atrium; [6]) of 1.85%. The responders at 300 mg/kg (female rats; session 1 (every 15 minutes)) was 0%, the responders at 300 mg/kg (female rats; session 2 (every 15 minutes)) was 0% and the responders at 300 mg/kg (female rats; session 3 (every 15 minutes)) was 0%. It also gave a responders at 300 mg/kg (female rats; session 4 (every 15 minutes)) of 10%, a responders at 300 mg/kg (female rats; session 5 (every 15 minutes)) of 10% and a responders at 300 mg/kg (female rats; session 6 (every 15 minutes)) of 10%. The responders at 400 mg/kg (female rats; session 1 (every 15 minutes)) was 0%, the responders at 400 mg/kg (female rats; session 2 (every 15 minutes)) was 0% and the responders at 400 mg/kg (female rats; session 3 (every 15 minutes)) was 0%. It also gave a responders at 400 mg/kg (female rats; session 4 (every 15 minutes)) of 10%, a responders at 400 mg/kg (female rats; session 5 (every 15 minutes)) of 20% and a responders at 400 mg/kg (female rats; [7]) of 20%. For the same compound, the responders at 600 mg/kg (female rats; session 1 (every 15 minutes)) was 0%, the responders at 600 mg/kg (female rats; session 2 (every 15 minutes)) was 10% and the responders at 600 mg/kg (female rats; session 3 (every 15 minutes)) was 10%. The responders at 600 mg/kg (female rats; session 4 (every 15 minutes)) was 20%, the responders at 600 mg/kg (female rats; session 5 (every 15 minutes)) was 20% and the responders at 600 mg/kg (female rats; [7]) was 20%. For the same compound, the LD50 (in vivo) was ~745 mg/kg, the “Contractile force, Mean ± S.E.” value (isolated rabbit hearts [2]; 1·10^-5 g/lt) was 32.8 ± 3.01% and the “Contractile force, Mean ± S.E.” value (isolated rabbit hearts [2]; 1·10^-6 g/lt) was 27.1 ± 3.18%. For the same compound, the “Contractile force, Mean ± S.E.” value (isolated rabbit hearts [2]; 5·10^-6 g/lt) was 27.5 ± 4.09%.

— patent publication US4194006A, “Therapeutic application of acetyl-d,l-carnitine and other acyl derivatives of d,l-carnitine” (priority 1977, dated 1980)
